Measurements reported in US12447151B2, “Alkyne derivative, preparation method for same, and uses thereof” (ZHEJIANG HISUN PHARMACEUTICAL CO., LTD., priority 2019, dated 2025).

Assays:
[1] = tested on: CT26 mouse colon cancer cell subcutaneously transplanted tumor; assay: Growth inhibition of CT26 mouse colon cancer subcutaneously transplanted tumor model, alone and combined with PD-L1 monoclonal antibody; type: in vivo, BALB/c mice; settings: 21st day after administration, Example 2 60 mg/kg gavage once a day, Anti-PD-L1 200 μg each i.p. once every 3 days, 4 times; for IR(%), tumor inhibition percentage: by tumor weight
Experimental: The anti-tumor effect of the combination of the compound of Example 2 and PD-L1 monoclonal antibody in CT26 mouse colon cancer cell subcutaneously transplanted tumor model was evaluated.
An appropriate amount of the compound of Example 2 was weighed into a centrifuge tube, and 5% NMP 95% PEG400 was added. The mixture was vortexed to a fully soluble solution with a concentration of 6 mg/mL, which was prepared before immediate use.
Recombinant anti-PD-L1 whole mouse monoclonal antibody (InVivoMAb anti-mouse PD-L1 (B7-H1), purchased from Bioxcell, Clone 10F.9G2, catalog number: BE0101, batch number: 720619F1) was diluted with PBS so that the concentration was 1 mg/mL, which was prepared before immediate use.
BALB/c mice, female, 7-8 weeks (the age of mice at the time of tumor cell inoculation), weight of 18.4-19.1 g, 9 mice in each group, purchased from Zhejiang Weitong Lihua Laboratory Animal Technology Co., Ltd., license number: SOCK (Zhejiang) 2019-0001.
CT26 mouse colon cancer cells were cultured in RPMI-1640 culture medium containing 10% fetal bovine serum, 100 U/mL penicillin and 100 μg/mL streptomycin. CT26 cells in the exponential growth phase were collected and resuspended in PBS to a suitable concentration for subcutaneous tumor inoculation in mice.
Female BALB/c mice were subcutaneously inoculated with 2.5×10^5 CT26 cells on the back. When the average tumor volume was about 127 mm^3, they were randomly grouped according to the size of the tumor. They were divided into 4 groups with each group of 9 animals, and the day of grouping was defined as day 0.
After tumor inoculation, routine monitoring included the effects of tumor growth and treatment on the normal behavior of animals. The specific content included the activity of the experimental animal, food and water consumption, weight gain or loss, abnormal conditions of eyes, coat and others. The tumor volume was weighed and measured twice a week. The administration period was 21 days. On the 21st day, the mice were weighed and the tumor volume was measured. The next day after the tumor volume was measured, the mice were sacrificed and tumor masses were taken and weighed. The tumor volume (TV), relative tumor volume (RTV), relative tumor growth rate (T/C), tumor inhibition percentage (IR) and relative tumor inhibition rate (TGI) were calculated, and statistical testing was performed. The calculation formulas were as follows:
(1) TV=1/2×a×b^2, where a and b represent the length and width of the tumor respectively;
(2) RTV=Vt/V0, where V0 is the tumor volume measured during administration in grouping (i.e. d0), and Vt is the tumor volume during each measurement;

recombinant human PI3Kγ = recombinant human PI3Kγ (Homo sapiens (Human), UniProt P48736); assay: Inhibitory activity on PI3K kinase (ADP-Glo Kinase Assay); type: biochemical
recombinant human PI3Kγ, sequence (P48736 whole entry): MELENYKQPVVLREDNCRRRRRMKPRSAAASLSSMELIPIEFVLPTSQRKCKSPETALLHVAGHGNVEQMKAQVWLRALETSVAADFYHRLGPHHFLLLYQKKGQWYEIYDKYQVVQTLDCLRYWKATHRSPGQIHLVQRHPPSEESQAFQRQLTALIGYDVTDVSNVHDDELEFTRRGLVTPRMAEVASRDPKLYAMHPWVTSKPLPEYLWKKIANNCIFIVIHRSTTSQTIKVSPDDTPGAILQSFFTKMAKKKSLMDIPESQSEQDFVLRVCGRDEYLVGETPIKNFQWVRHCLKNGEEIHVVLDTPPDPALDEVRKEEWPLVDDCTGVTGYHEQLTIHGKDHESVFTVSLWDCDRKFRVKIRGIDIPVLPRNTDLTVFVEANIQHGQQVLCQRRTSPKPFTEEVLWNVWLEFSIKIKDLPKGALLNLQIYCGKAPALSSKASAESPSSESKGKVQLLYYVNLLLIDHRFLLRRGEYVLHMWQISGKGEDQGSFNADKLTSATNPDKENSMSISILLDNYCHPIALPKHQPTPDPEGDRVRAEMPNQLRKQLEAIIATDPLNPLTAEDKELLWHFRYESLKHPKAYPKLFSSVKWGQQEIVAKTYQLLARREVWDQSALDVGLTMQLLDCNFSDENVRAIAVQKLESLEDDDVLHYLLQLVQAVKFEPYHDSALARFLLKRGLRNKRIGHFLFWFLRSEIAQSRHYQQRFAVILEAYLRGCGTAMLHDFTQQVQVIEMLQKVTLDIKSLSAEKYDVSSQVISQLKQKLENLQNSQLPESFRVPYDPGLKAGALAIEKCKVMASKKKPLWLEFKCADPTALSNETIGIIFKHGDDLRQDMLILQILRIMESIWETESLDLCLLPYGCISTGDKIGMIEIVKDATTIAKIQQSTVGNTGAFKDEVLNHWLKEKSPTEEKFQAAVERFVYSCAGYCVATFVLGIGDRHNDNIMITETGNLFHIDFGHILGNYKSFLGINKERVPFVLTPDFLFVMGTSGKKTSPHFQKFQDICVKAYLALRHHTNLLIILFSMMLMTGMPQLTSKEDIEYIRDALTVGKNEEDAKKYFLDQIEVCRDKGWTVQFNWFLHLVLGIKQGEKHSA
Text: The following method is used to determine the degree of inhibition of recombinant human PI3Kα, PI3Kβ, PI3Kγ and PI3Kδ kinase activity by the compounds of the present invention under in vitro conditions. Promega's ADP-Glo Kinase Assay Kit (Cat. No. V9102) was used in this method. The above kit was a luminescence kinase detection kit, which was used to detect the ADP content produced by the kinase reaction. The ADP content was positively correlated with the kinase activity. By measuring the ADP content, the inhibition of the compound on the activity of PI3Kα, PI3Kβ, PI3Kγ and PI3Kδ kinases was reflected. For detailed experimental operations, please refer to the kit instructions. Recombinant human PI3Kα, PI3Kγ, and PI3Kδ were purchased from Invitrogen, and PI3Kβ was purchased from Promega (category numbers were PI3Kα: PV4788; PI3Kβ: V1751; PI3Kγ: PV4786 and PI3Kδ: PV6451 separately).

recombinant human PI3Kα = recombinant human PI3Kα (Homo sapiens (Human), UniProt P42336); assay: as above
recombinant human PI3Kα, sequence (P42336 whole entry): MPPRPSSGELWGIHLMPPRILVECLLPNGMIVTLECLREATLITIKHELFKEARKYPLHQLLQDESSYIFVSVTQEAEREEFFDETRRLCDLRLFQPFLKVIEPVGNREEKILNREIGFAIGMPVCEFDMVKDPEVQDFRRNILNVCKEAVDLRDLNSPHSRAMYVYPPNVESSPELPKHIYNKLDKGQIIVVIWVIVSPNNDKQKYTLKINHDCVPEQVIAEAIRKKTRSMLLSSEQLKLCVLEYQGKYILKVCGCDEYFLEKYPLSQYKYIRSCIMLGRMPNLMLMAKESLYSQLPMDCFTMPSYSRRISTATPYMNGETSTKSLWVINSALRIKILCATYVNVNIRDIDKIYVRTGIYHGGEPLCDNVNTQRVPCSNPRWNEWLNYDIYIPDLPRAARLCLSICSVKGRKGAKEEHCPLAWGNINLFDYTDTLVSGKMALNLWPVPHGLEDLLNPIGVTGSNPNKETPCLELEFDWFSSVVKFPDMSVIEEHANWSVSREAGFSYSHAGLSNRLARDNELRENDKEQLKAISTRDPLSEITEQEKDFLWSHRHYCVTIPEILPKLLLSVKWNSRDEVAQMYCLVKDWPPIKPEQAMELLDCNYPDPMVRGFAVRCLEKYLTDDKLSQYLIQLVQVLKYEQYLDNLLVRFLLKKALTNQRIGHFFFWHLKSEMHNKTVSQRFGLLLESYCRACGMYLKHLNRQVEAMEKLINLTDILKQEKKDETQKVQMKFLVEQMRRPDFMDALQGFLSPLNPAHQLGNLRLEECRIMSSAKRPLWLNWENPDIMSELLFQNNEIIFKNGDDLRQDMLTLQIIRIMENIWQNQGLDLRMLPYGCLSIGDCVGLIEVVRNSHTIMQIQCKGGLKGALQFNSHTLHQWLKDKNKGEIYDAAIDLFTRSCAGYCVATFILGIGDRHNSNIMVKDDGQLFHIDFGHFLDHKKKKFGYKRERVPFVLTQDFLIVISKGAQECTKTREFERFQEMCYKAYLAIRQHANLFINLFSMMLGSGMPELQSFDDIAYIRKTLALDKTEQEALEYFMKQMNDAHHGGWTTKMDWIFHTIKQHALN
recombinant human PI3Kα, sequence (P27986 whole entry partner): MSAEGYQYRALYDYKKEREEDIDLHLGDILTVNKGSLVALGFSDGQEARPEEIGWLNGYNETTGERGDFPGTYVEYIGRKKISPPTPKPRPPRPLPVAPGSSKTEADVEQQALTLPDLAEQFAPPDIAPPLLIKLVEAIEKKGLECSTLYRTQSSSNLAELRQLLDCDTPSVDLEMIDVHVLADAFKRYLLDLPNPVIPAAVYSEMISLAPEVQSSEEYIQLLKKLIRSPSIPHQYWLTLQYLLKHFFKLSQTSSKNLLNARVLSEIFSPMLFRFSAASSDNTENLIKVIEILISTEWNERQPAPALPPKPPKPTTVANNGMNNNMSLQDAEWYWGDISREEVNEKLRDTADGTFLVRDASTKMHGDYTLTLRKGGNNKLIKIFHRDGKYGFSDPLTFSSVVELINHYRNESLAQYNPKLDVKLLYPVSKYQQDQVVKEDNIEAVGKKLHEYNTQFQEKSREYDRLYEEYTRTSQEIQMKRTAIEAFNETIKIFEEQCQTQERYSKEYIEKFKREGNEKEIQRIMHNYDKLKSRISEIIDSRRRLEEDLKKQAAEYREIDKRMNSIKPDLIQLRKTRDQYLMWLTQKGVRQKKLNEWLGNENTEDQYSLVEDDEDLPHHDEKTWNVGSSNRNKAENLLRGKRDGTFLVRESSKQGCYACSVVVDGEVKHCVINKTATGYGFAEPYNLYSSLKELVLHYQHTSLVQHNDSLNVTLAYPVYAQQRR
Text: The following method is used to determine the degree of inhibition of recombinant human PI3Kα, PI3Kβ, PI3Kγ and PI3Kδ kinase activity by the compounds of the present invention under in vitro conditions. Promega's ADP-Glo Kinase Assay Kit (Cat. No. V9102) was used in this method. The above kit was a luminescence kinase detection kit, which was used to detect the ADP content produced by the kinase reaction. The ADP content was positively correlated with the kinase activity. By measuring the ADP content, the inhibition of the compound on the activity of PI3Kα, PI3Kβ, PI3Kγ and PI3Kδ kinases was reflected. […] Recombinant human PI3Kα, PI3Kγ, and PI3Kδ were purchased from Invitrogen, and PI3Kβ was purchased from Promega (category numbers were PI3Kα: PV4788; PI3Kβ: V1751; PI3Kγ: PV4786 and PI3Kδ: PV6451 separately).

SMILES: C[C@H](NC(=O)c1c(N)nn2cccnc12)c1nc2cccc(C#Cc3cnn(C4CC4)c3)c2c(=O)n1-c1ccccc1 [Example 2, (S)-2-amino-N-(1-(5-((1-cyclopropyl-1H-pyrazol-4-yl)ethynyl)-4-oxo-3-phenyl-3,4-dihydroquinazolin-2-yl)ethyl)pyrazolo[1,5-a]pyrimidine-3-carboxamide]
- RTV (x ± S), relative tumor volume [1]: 5.47 ± 1.05
- TGI (%), relative tumor inhibition rate [1]: 51.2%
- Tumor weight (g) (x ± S) [1]: 0.5942 ± 0.1730 g
- TV (x ± S), tumor volume ([1]; in mm³ (unit assumed)): 723.47 ± 159.50
- IR(%), tumor inhibition percentage ([1]; listed as Compound of Example 2): 52.1%
- IR(%), tumor inhibition percentage ([1]; listed as compound of Example 2): 52.1%
- IC50 (recombinant human PI3Kγ; ADP-Glo, ATP 10 μM): 0.58 nM
- IC50 (PI3Kα)/IC50(PI3Kγ) (recombinant human PI3Kγ; kinase selectivity for PI3Kγ over PI3Kα): 370
- IC50 (PI3Kβ)/IC50(PI3Kγ) (recombinant human PI3Kγ; kinase selectivity for PI3Kγ over PI3Kβ): 804
- IC50 (PI3Kδ)/IC50(PI3Kγ) (recombinant human PI3Kγ; kinase selectivity for PI3Kγ over PI3Kδ): 330
- IC50 (recombinant human PI3Kα): 215 nM
